Assay results reported in BindingDB's records for doi:10.1016/j.ejmech.2017.07.016 (South Dakota State University, 2017).

Assay: Antagonist activity at human CRFR1 expressed in HEK293 cells assessed as inhibition of sauvagine-induced cAMP accumulation by measuring sauvagine EC50 at 1 uM after 30 mins (Rvb = 0.203 nM)

Which EC50 does the source give for `CCCCN(CC)c1nc(C)nc2c1sc(=N)n2-c1c(C)cc(C)cc1C` here?
Its EC50 is 1.1 nM.
